What all share (assay): relative viability (nuclei count vs DMSO), 5 days (fraction); higher = more cells survive
Compound in the experiment “Kobe2602 + Olaparib”: C1=CC(=CC=C1NC(=S)NNC2=C(C=C(C=C2[N+](=O)[O-])C(F)(F)F)[N+](=O)[O-])F [Kobe2602] + O=C(c1cc(Cc2n[nH]c(=O)c3ccccc23)ccc1F)N1CCN(C(=O)C2CC2)CC1 [Olaparib] (partner 8 µM)
Put shortly:
(§1)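 The day after seeding in 1536-well plates, lung cancer cell lines were treated by pin tool with a single drug, or with a fixed anchor-drug dose together with five library-drug doses (not always all listed) in √10 steps. After 5 days, a combined fix-and-stain solution (final 0.05% Triton X-100, 1% formaldehyde, 1 ug/ml Hoechst) was added. Nuclei counted on 4× images gave relative viability as treated counts over vehicle counts, reported as the median of duplicate plates.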

Compound in the experiment “Zosuquidar + Palbociclib”: O[C@@H](COc1cccc2ncccc12)CN1CCN([C@@H]2c3ccccc3[C@@H]3[C@H](c4ccccc42)C3(F)F)CC1 [Zosuquidar] + CC(=O)c1c(C)c2cnc(Nc3ccc(N4CCNCC4)cn3)nc2n(C2CCCC2)c1=O [Palbociclib] (partner 0.5 µM)
In short, it runs like this:
as §1

Compound in experiment [1]: COc1cc2nccc(Oc3ccc(NC(=O)C4(C(=O)Nc5ccc(F)cc5)CC4)cc3)c2cc1OC [Cabozantinib] + C[C@]1(O)C[C@@H](c2nc(-c3ccc4ccc(-c5ccccc5)nc4c3)c3c(N)nccn32)C1 [Linsitinib] (partner 1 µM)
Put shortly: as §1

Compound in experiment [2]: COc1cc2nccc(Oc3ccc(NC(=O)C4(C(=O)Nc5ccc(F)cc5)CC4)cc3)c2cc1OC [Cabozantinib] + CC(=O)c1c(C)c2cnc(Nc3ccc(N4CCNCC4)cn3)nc2n(C2CCCC2)c1=O [Palbociclib] (partner 0.5 µM)
Put shortly: as §1

As to UMC-11, the relative viability with Kobe2602 + Olaparib (first compound 0.2 µM) amounted to 0.404; with Kobe2602 + Olaparib (first compound 0.6325 µM), 1.07; in the experiment with Kobe2602 + Olaparib (first compound 2 µM), 0.384; with Kobe2602 + Olaparib (first compound 6.325 µM), 0.366; in the experiment with Kobe2602 + Olaparib (first compound 20 µM) it was 1.02; in the experiment with Zosuquidar + Palbociclib (first compound 0.01 µM), 0.313. Also, the relative viability with Zosuquidar + Palbociclib (first compound 0.03162 µM) stood at 0.305; with Zosuquidar + Palbociclib (first compound 0.1 µM) it was 0.338; in the experiment with Zosuquidar + Palbociclib (first compound 0.3162 µM), 0.341; with Zosuquidar + Palbociclib (first compound 1 µM), 0.296; in experiment [1] (first compound 0.02 µM), 1.12; in experiment [1] (first compound 0.06325 µM), 1.04. Also, the relative viability in experiment [1] (first compound 0.2 µM) stood at 1.03; in experiment [1] (first compound 0.6325 µM), 0.98; in experiment [1] (first compound 2 µM) it was 1.05; in experiment [2] (first compound 0.02 µM), 0.352; in experiment [2] (first compound 0.06325 µM), 0.324; in experiment [2] (first compound 0.2 µM), 0.336. For the same cell line, the values for the relative viability in experiment [2] (first compound 0.6325 µM) and in experiment [2] (first compound 2 µM) were 0.312 and 0.334, respectively.

Values taken from the supplement of paper PMC10307832.
